Measured values published in patent US11716992B2, “5A5B6C tricyclic spirolactone derivative, preparation method therefor and use thereof” (NANKAI UNIVERSITY, priority 2017, dated 2023).
Where “and” joins values, the source holds several entries; their conditions need not be identical. Equal entries are not always repeated. Where two headings read alike, the source gives them in different places.

Legend:
[1] = system: Mythimna separate (Walker); assay: Insecticidal activity against Mythimna separate (Walker); assay type: in vivo; conditions: 100 μg/mL; for pest or weed control at 100 µg/mL: Mythimna, read-out: insecticidal activity, Mythimna separate (Walker)
[2] = system: Helicoverpa armigera (Hübner); assay: Insecticidal activity against Helicoverpa armigera (Hübner); assay type: in vivo; conditions: 100 μg/mL; for pest or weed control at 100 µg/mL: Helicoverpa armigera, read-out: insecticidal activity, Helicoverpa armigera (Hübner)
Ostrinia furnacalis = assay: Insecticidal activity against Ostrinia furnacalis; assay type: in vivo; conditions: 100 μg/mL; for pest or weed control at 100 µg/mL: Ostrinia furnacalis, read-out: insecticidal activity, Ostrinia furnacalis
Caenorhabditis elegans = assay: Insecticidal activity against Caenorhabditis elegans; assay type: in vivo; conditions: Caenorhabditis elegans, 100 μg/mL; read-out: insecticidal activity, Caenorhabditis elegans
Alternaria solani = assay: Fungicidal activity, fungicide growth rate method, AS; assay type: cell-based; conditions: 50 μg/mL; for inhibition at 50 µg/mL: Alternaria solani, read-out: fungicidal activity (growth inhibition rate), AS
Botrytis cinerea = assay: Fungicidal activity, fungicide growth rate method, BC; assay type: cell-based; conditions: 50 μg/mL; for inhibition at 50 µg/mL: Botrytis cinerea, read-out: fungicidal activity (growth inhibition rate), BC
[3] = system: Phytophthora infestans (Mont.) de Bary; assay: microbe, parasite or virus in culture; assay type: cell-based; conditions: for inhibition at 50 µg/mL: Phytophthora infestans, read-out: fungicidal activity (growth inhibition rate), PI, 50 μg/mL
Pellicularia sasakii = assay: Fungicidal activity, fungicide growth rate method, PS; assay type: cell-based; conditions: 50 μg/mL; for inhibition at 50 µg/mL: read-out: fungicidal activity (growth inhibition rate), PS
Rhizoctonia cerealis = assay: Fungicidal activity, fungicide growth rate method, RC; assay type: cell-based; conditions: 50 μg/mL; for inhibition at 50 µg/mL: Ceratobasidium cereale, read-out: fungicidal activity (growth inhibition rate), RC
Sclerotinia sclerotiorum = assay: Fungicidal activity, fungicide growth rate method, SS; assay type: cell-based; conditions: 50 μg/mL; for inhibition at 50 µg/mL: Sclerotinia sclerotiorum
Cercospora arachidicola = assay: Fungicidal activity, fungicide growth rate method, CA; assay type: cell-based; conditions: 50 μg/mL; for inhibition at 50 µg/mL: Mycosphaerella arachidis, read-out: fungicidal activity (growth inhibition rate), CA
Physalospora piricola = assay: Fungicidal activity, fungicide growth rate method, PP; assay type: cell-based; conditions: 50 μg/mL; for inhibition at 50 µg/mL: read-out: fungicidal activity (growth inhibition rate), PP
wheat Gibberella zeae = assay: microbe, parasite or virus in culture; assay type: cell-based; conditions: for inhibition at 50 µg/mL: Fusarium graminearum, read-out: fungicidal activity (growth inhibition rate), GZ, 50 μg/mL
[4] = system: Apis mellifera ligustica Spin; conditions: for Death number after 24 h / Death number after 48 h: per replicate of 10 bees

Row | Compound | pest or weed control at 100 µg/mL [1] [%] | pest or weed control at 100 µg/mL [2] [%] | pest or weed control at 100 µg/mL (Ostrinia furnacalis) [%] | pest or weed control at 100 µg/mL (Caenorhabditis elegans) [%] | inhibition at 50 µg/mL (Alternaria solani) [%] | inhibition at 50 µg/mL (Botrytis cinerea) [%] | inhibition at 50 µg/mL [3] [%] | inhibition at 50 µg/mL (Pellicularia sasakii) [%] | inhibition at 50 µg/mL (Rhizoctonia cerealis) [%] | inhibition at 50 µg/mL (Sclerotinia sclerotiorum) [%] | inhibition at 50 µg/mL (Cercospora arachidicola) [%] | inhibition at 50 µg/mL (Physalospora piricola) [%] | inhibition at 50 µg/mL (wheat Gibberella zeae) [%] | other results
1 | CC(C)(C)OO[C@@H]1CC(=O)[C@@]2(O)CC=CC[C@H]12 [Zyj06-92-2] | 20 | 10 | 10 | 20 | > 60 | 30 | 15 | 41 | > 70 | 38 | – | – | – | –
2 | CCOC(=O)C[C@@H]1C[C@]2(O)CC(=O)O[C@@]23CC=CC[C@H]13 [Zyj06-128] | – | – | – | > 30 | – | 25 | 7 | 20 | > 70 | 0 | 27 | 8 | – | –
3 | C=C(C)C1CC(=O)[C@@]2(O)CC=CC[C@H]12 (stereo partly drawn) [Zyj06-166] | 0 | 0 | 0 | 5 | – | 36 | 25 | 18 | 0 | 17 | > 50 | 38 | 27 | Death rate after 48 h (%) ([4]; dosage 9.93 μg a.i./bee): 0%; Death number after 24 h ([4]; dosage 9.93 μg a.i./bee): 0; Death number after 48 h ([4]; dosage 9.93 μg a.i./bee): 0; Death rate after 48 h (%) ([4]; dosage 19.7 μg a.i./bee): 10.0%; Death number after 24 h ([4]; dosage 19.7 μg a.i./bee): 0; Death number after 48 h ([4]; dosage 19.7 μg a.i./bee): 1
4 | C=C(C)C1C[C@]2(O)C(C(=O)OCC)C(=O)O[C@@]23CC=CC[C@H]13 (stereo partly drawn) [Zyj06-167] | – | – | – | 25 | – | 13 | 0 | 24 | 59 | 9 | 26 | 0 | 46 | –
5 | C=C(C)[C@@H]1C[C@]2(O)CC(=O)O[C@@]23CC=CC[C@H]13 [Zyj06-175] | – | – | – | 15 | – | 25 | 0 | 5 | 61 | 11 | 33 | 8 | 14 | –
6 | C=CC[C@@H]1C[C@]2(O)CC(=O)O[C@@]23CC=CC[C@H]13 [Zyj06-186] | 0 | 0 | 0 | 15 | 7 | 49 | 4 | 6 | 41 | > 50 | 46 | 11 | 21 | –
7 | CCOC(=O)C1C(=O)O[C@]23CC=CC[C@@H]2[C@H](OC)C[C@]13O (stereo partly drawn) [Zyj06-187] | 10 | 0 | 0 | 8 | 14 | 34 | 31 | 0 | 50 | 43 | > 50 | – | > 50 | Death rate after 48 h (%) ([4]; dosage 6.08 μg a.i./bee): 0%; Death number after 24 h ([4]; dosage 6.08 μg a.i./bee): 0; Death number after 48 h ([4]; dosage 6.08 μg a.i./bee): 0; Death rate after 48 h (%) ([4]; dosage 10.6 μg a.i./bee): 10.0%; Death number after 24 h ([4]; dosage 10.6 μg a.i./bee): 0; Death number after 48 h ([4]; dosage 10.6 μg a.i./bee): 1
8 | CO[C@@H]1C[C@]2(O)CC(=O)O[C@@]23CC=CC[C@H]13 [Zyj06-189] | 0 | 0 | 0 | 8 | 0 | > 50 | 23 | 23 | 29 | 0 | 24 | > 50 | 13 | Death rate after 48 h (%) ([4]; dosage 9.77 μg a.i./bee): 0%; Death number after 24 h ([4]; dosage 9.77 μg a.i./bee): 0; Death number after 48 h ([4]; dosage 9.77 μg a.i./bee): 0; Death rate after 48 h (%) ([4]; dosage 16.4 μg a.i./bee): 0%; Death number after 24 h ([4]; dosage 16.4 μg a.i./bee): 0; Death number after 48 h ([4]; dosage 16.4 μg a.i./bee): 0
9 | C=CC[C@@H]1C[C@]2(O[Si](C)(C)CC=C)CCO[C@@]23C[C@H](O[Si](C)(C)CC=C)CC[C@H]13 [Zyj07-46] | 20 | 5 | 0 | 10 | 8 | > 50 | 21 | 22 | 0 | > 50 | 14 | 21 | 3 | –
10 | C=CC[C@@H]1C[C@]2(O)CC(O)O[C@@]23C[C@H]2O[C@H]2C[C@H]13 (stereo partly drawn) [Zyj07-64] | 20 | 10 | 5 | 8 | > 60 | 41 | 17 | > 60 | > 70 | 45 | – | – | 73 | Death rate after 48 h (%) ([4]; dosage 10.0 μg a.i./bee): 15.0%; Death number after 24 h ([4]; dosage 10.0 μg a.i./bee): 0; Death number after 48 h ([4]; dosage 10.0 μg a.i./bee): 1 and 2; Death rate after 48 h (%) ([4]; dosage 15.5 μg a.i./bee): 10.0%; Death number after 24 h ([4]; dosage 15.5 μg a.i./bee): 0 and 1; Death number after 48 h ([4]; dosage 15.5 μg a.i./bee): 0 and 2
11 | CCOC(=O)C1C(=O)O[C@]23CC=CC[C@@H]2CC[C@]13O (stereo partly drawn) [Zyj07-95] | > 30 | 10 | 10 | – | > 60 | – | 29 | 57 | > 70 | > 50 | – | – | > 50 | Death rate after 48 h (%) ([4]; dosage 9.36 μg a.i./bee): 0%; Death number after 24 h ([4]; dosage 9.36 μg a.i./bee): 0; Death number after 48 h ([4]; dosage 9.36 μg a.i./bee): 0; Death rate after 48 h (%) ([4]; dosage 19.9 μg a.i./bee): 0%; Death number after 24 h ([4]; dosage 19.9 μg a.i./bee): 0; Death number after 48 h ([4]; dosage 19.9 μg a.i./bee): 0
12 | C=CC[C@@H]1C[C@@]2(O)C[C@@H](CC=C)[C@H]3CC=CC[C@@]32O1 [Zyj07-98] | 0 | 0 | – | 25 | > 60 | > 50 | 17 | 27 | > 70 | > 50 | – | – | > 50 | Death rate after 48 h (%) ([4]; dosage 8.47 μg a.i./bee): 0%; Death number after 24 h ([4]; dosage 8.47 μg a.i./bee): 0; Death number after 48 h ([4]; dosage 8.47 μg a.i./bee): 0
13 | Ryanodine [reference compound] | – | – | – | – | – | – | – | – | – | – | – | – | – | insecticidal activity, Mythimna separate (Walker) [1]: 100%; insecticidal activity, Helicoverpa armigera (Hübner) [2]: 100%; insecticidal activity, Ostrinia furnacalis (Ostrinia furnacalis): 100%; fungicidal activity (growth inhibition rate), AS (Alternaria solani): 25%; fungicidal activity (growth inhibition rate), BC (Botrytis cinerea): 25%; fungicidal activity (growth inhibition rate), CA (Cercospora arachidicola): 10%; fungicidal activity (growth inhibition rate), GZ (wheat Gibberella zeae; 50 μg/mL): 20%; fungicidal activity (growth inhibition rate), PI ([3]; 50 μg/mL): 30%; fungicidal activity (growth inhibition rate), PP (Physalospora piricola): 25%; fungicidal activity (growth inhibition rate), PS (Pellicularia sasakii): 32%; fungicidal activity (growth inhibition rate), RC (Rhizoctonia cerealis): 50%; fungicidal activity (growth inhibition rate), SS (Sclerotinia sclerotiorum): 25%
